Here are results for six compounds from patent US5397774A, “Pyrazolopyrimidine and pyrimidinyl bisphosphonic esters as anti-inflammatories” (The Upjohn Company, priority 1993, dated 1995).

In general, inhibition in vivo refers to the percentage by which the read-out fell short of the control. Usually % Inhibition stands for the percentage by which the read-out fell short of the control.

The test system of this experiment is DTH granuloma (DTH GRA) lesion in mBSA-sensitized mice. Put plainly: Delayed Type Hypersensitivity Granuloma Assay (DTH GRA) model for inflammation. Format: in vivo, mouse. The note with it: 10 mg/kg PO, mouse DTH granuloma excised after nine days; for inhibition in vivo at 10 mg/kg: Mus musculus, po, 216 h. The method, then: This assay is described by Dunn, C.
Briefly, mBSA-sensitized mice have a DTH granuloma (DTH GRA) lesion induced by subcutaneously implanting a mBSA-soaked filter which is excised after nine days. Compounds are administered to the mice to determine their effect on the lesions. The results are recorded as percent inhibition. […] Inhibition of 10 to 20% is considered to indicate anti-granuloma activity.
Again, as in Table 1, the results are recorded as percent inhibition. […] Inhibition of 10 to 20% is considered to indicate anti-granuloma activity. […]

As to `CCOP(=O)(OCC)C(CCc1cc(C)nc2c(C#N)c(-c3ccccc3)nn12)P(=O)(OCC)OCC` [c, (3-(3-Cyano-5-methyl-2-phenyl-pyrazolo(1,5-a)pyrimidin-7-yl)-propylidene)bisphosphonic acid tetraethyl ester], where the note is “Table 1, Formula 1 compounds”, the inhibition in vivo at 10 mg/kg is 26%. As for `C=CCn1c(CCC(P(=O)(OCC)OCC)P(=O)(OCC)OCC)nc(-c2ccccc2)cc1=O` [t, (3-(2-(3-Allyl-4-oxo-6-phenyl-4(3H)-pyrimidinyl))-propylidine)bisphosphonic acid tetraethyl ester], the inhibition in vivo at 10 mg/kg (Table 2, Formula 2 compounds) stood at 7%. On the same count and under the same terms, the figure for `CCOP(=O)(OCC)C(CCc1nc(-c2cccc(F)c2)cc(=O)n1C)P(=O)(OCC)OCC` [s, (3-(2-(3-Methyl-4-oxo-6-(3-fluoro-phenyl)-4(3H)-pyrimidinyl))-propylidine)bisphosphonic acid tetraethyl ester] is 32%. Turning to `C=CCn1c(CCC(P(=O)(OCC)OCC)P(=O)(OCC)OCC)nc(-c2ccccc2)cc1=O` [hh, (3-(2-(3-Allyl-4-oxo-6-phenyl-4(3H)-pyrimidinyl))-propylidine)bisphosphonic acid tetraethyl ester], for the setting “Table 2, Formula 2 compounds, 10 mg/kg”, the “% Inhibition” value stood at 11%. Take `CCOP(=O)(OCC)C(CCc1nc(-c2ccc(N(C)C)cc2)cc(=O)n1C)P(=O)(OCC)OCC` [cc, (3-(2-(3-Methyl-4-oxo-6-(4-dimethylaminophenyl)-4(3H)-pyrimidinyl))-propylidine)bisphosphonic acid tetraethyl ester]: the inhibition in vivo at 10 mg/kg (Table 2, Formula 2 compounds) amounted to 63%. Still for that read-out and setting: the figure for `CCOP(=O)(OCC)C(CCc1nc(-c2ccccc2)cc(=O)n1C)P(=O)(OCC)OCC` [p, (3-(2-(3-Methyl-4-oxo-6-phenyl-4(3H)-pyrimidinyl))-propylidine)bisphosphonic acid tetraethyl ester] is 60%.
